Measured values from ChEMBL document CHEMBL1629608, “Variations in amino acid composition of antisense peptide-phosphorodiamidate morpholino oligomer affect potency against Escherichia coli in vitro and in vivo” (Antimicrob Agents Chemother, 2009).
Values after ≈ are worked out from the molar mass of the structure shown.

Each compound was assayed on Escherichia coli (assay: Ratio of compound MIC to ampicillin MIC for Escherichia coli K-12 W3110). Details: not given.
Assay type: functional, K-12 substr. W3110

| Compound | Ratio |
| --- | --- |
| Cc1cn([C@H]2CN(P(=O)(OC[C@@H]3CN(P(=O)(OC[C@@H]4CN(P(=O)(OC[C@@H]5CN(P(=O)(OC[C@@H]6CN(P(=O)(OC[C@@H]7CN(P(=O)(OC[C@@H]8CN(P(=O)(OC[C@@H]9CN(P(=O)(OC[C@@H]%10CNC[C@H](n%11cnc%12c(=O)[nH]c(N)nc%12%11)O%10)N(C)C)C[C@H](n%10cc(C)c(=O)[nH]c%10=O)O9)N(C)C)C[C@H](n9cnc%10c(=O)[nH]c(N)nc%109)O8)N(C)C)C[C@H](n8cnc9c(N)ncnc98)O7)N(C)C)C[C@H](n7cc(C)c(=O)[nH]c7=O)O6)N(C)C)C[C@H](n6cnc7c(N)ncnc76)O5)N(C)C)C[C@H](n5cnc6c(=O)[nH]c(N)nc65)O4)N(C)C)C[C@H](n4ccc(N)nc4=O)O3)N(C)C)C[C@@H](COP(=O)(N(C)C)N3C[C@@H](COP(=O)(N(C)C)N4C[C@@H](COP(=O)(N(C)C)N5CCN(C(=O)CCNC(=O)CCCCCNC(=O)[C@H](Cc6ccccc6)NC(=O)[C@H](Cc6ccccc6)NC(=O)[C@H](CCCNC(=N)N)NC(=O)[C@H](Cc6ccccc6)NC(=O)[C@H](Cc6ccccc6)NC(=O)[C@H](CCCNC(=N)N)NC(=O)[C@H](Cc6ccccc6)NC(=O)[C@H](Cc6ccccc6)NC(=O)[C@@H](N)CCCNC(=N)N)CC5)O[C@@H](n5ccc(N)nc5=O)C4)O[C@@H](n4cc(C)c(=O)[nH]c4=O)C3)O2)c(=O)[nH]c1=O (some centres undefined) | 2.5 |

These compounds were tested on Escherichia coli (assay: Antibacterial activity against Escherichia coli K-12 W3110 by microdilution method). Details: K-12 substr. W3110.
Assay type: functional

| Compound | MIC |
| --- | --- |
| Cc1cn([C@H]2CN(P(=O)(OC[C@@H]3CN(P(=O)(OC[C@@H]4CN(P(=O)(OC[C@@H]5CN(P(=O)(OC[C@@H]6CN(P(=O)(OC[C@@H]7CN(P(=O)(OC[C@@H]8CN(P(=O)(OC[C@@H]9CN(P(=O)(OC[C@@H]%10CNC[C@H](n%11cnc%12c(=O)[nH]c(N)nc%12%11)O%10)N(C)C)C[C@H](n%10cc(C)c(=O)[nH]c%10=O)O9)N(C)C)C[C@H](n9cnc%10c(=O)[nH]c(N)nc%109)O8)N(C)C)C[C@H](n8cnc9c(N)ncnc98)O7)N(C)C)C[C@H](n7cc(C)c(=O)[nH]c7=O)O6)N(C)C)C[C@H](n6cnc7c(N)ncnc76)O5)N(C)C)C[C@H](n5cnc6c(=O)[nH]c(N)nc65)O4)N(C)C)C[C@H](n4ccc(N)nc4=O)O3)N(C)C)C[C@@H](COP(=O)(N(C)C)N3C[C@@H](COP(=O)(N(C)C)N4C[C@@H](COP(=O)(N(C)C)N5CCN(C(=O)CCNC(=O)CCCCCNC(=O)[C@H](CCCCN)NC(=O)CCCCNC(=O)[C@H](CCCCN)NC(=O)[C@H](CCCCN)NC(=O)CCCCNC(=O)[C@H](CCCCN)NC(=O)[C@H](CCCCN)NC(=O)CCCCNC(=O)[C@H](CCCCN)NC(=O)[C@H](CCCCN)NC(=O)CCCCNC(=O)[C@@H](N)CCCCN)CC5)O[C@@H](n5ccc(N)nc5=O)C4)O[C@@H](n4cc(C)c(=O)[nH]c4=O)C3)O2)c(=O)[nH]c1=O (some centres undefined) | 20 µM (≈ 108 µg/mL) |
| Cc1cn([C@H]2CN(P(=O)(OC[C@@H]3CN(P(=O)(OC[C@@H]4CN(P(=O)(OC[C@@H]5CN(P(=O)(OC[C@@H]6CN(P(=O)(OC[C@@H]7CN(P(=O)(OC[C@@H]8CN(P(=O)(OC[C@@H]9CN(P(=O)(OC[C@@H]%10CNC[C@H](n%11cnc%12c(=O)[nH]c(N)nc%12%11)O%10)N(C)C)C[C@H](n%10cc(C)c(=O)[nH]c%10=O)O9)N(C)C)C[C@H](n9cnc%10c(=O)[nH]c(N)nc%109)O8)N(C)C)C[C@H](n8cnc9c(N)ncnc98)O7)N(C)C)C[C@H](n7cc(C)c(=O)[nH]c7=O)O6)N(C)C)C[C@H](n6cnc7c(N)ncnc76)O5)N(C)C)C[C@H](n5cnc6c(=O)[nH]c(N)nc65)O4)N(C)C)C[C@H](n4ccc(N)nc4=O)O3)N(C)C)C[C@@H](COP(=O)(N(C)C)N3C[C@@H](COP(=O)(N(C)C)N4C[C@@H](COP(=O)(N(C)C)N5CCN(C(=O)CCNC(=O)CCCCCNC(=O)[C@H](Cc6ccccc6)NC(=O)[C@H](Cc6ccccc6)NC(=O)[C@H](CCCNC(=N)N)NC(=O)[C@H](Cc6ccccc6)NC(=O)[C@H](Cc6ccccc6)NC(=O)[C@H](CCCNC(=N)N)NC(=O)[C@H](Cc6ccccc6)NC(=O)[C@H](Cc6ccccc6)NC(=O)[C@@H](N)CCCNC(=N)N)CC5)O[C@@H](n5ccc(N)nc5=O)C4)O[C@@H](n4cc(C)c(=O)[nH]c4=O)C3)O2)c(=O)[nH]c1=O (some centres undefined) | 2.5 µM (≈ 13.3 µg/mL) |
| Cc1cn([C@H]2CN(P(=O)(OC[C@@H]3CN(P(=O)(OC[C@@H]4CN(P(=O)(OC[C@@H]5CN(P(=O)(OC[C@@H]6CN(P(=O)(OC[C@@H]7CN(P(=O)(OC[C@@H]8CN(P(=O)(OC[C@@H]9CN(P(=O)(OC[C@@H]%10CNC[C@H](n%11cnc%12c(=O)[nH]c(N)nc%12%11)O%10)N(C)C)C[C@H](n%10cc(C)c(=O)[nH]c%10=O)O9)N(C)C)C[C@H](n9cnc%10c(=O)[nH]c(N)nc%109)O8)N(C)C)C[C@H](n8cnc9c(N)ncnc98)O7)N(C)C)C[C@H](n7cc(C)c(=O)[nH]c7=O)O6)N(C)C)C[C@H](n6cnc7c(N)ncnc76)O5)N(C)C)C[C@H](n5cnc6c(=O)[nH]c(N)nc65)O4)N(C)C)C[C@H](n4ccc(N)nc4=O)O3)N(C)C)C[C@@H](COP(=O)(N(C)C)N3C[C@@H](COP(=O)(N(C)C)N4C[C@@H](COP(=O)(N(C)C)N5CCN(C(=O)CCNC(=O)CCCCCNC(=O)[C@H](Cc6ccccc6)NC(=O)[C@H](Cc6ccccc6)NC(=O)[C@H](CCCNC(=N)N)NC(=O)[C@H](Cc6ccccc6)NC(=O)[C@H](Cc6ccccc6)NC(=O)[C@@H](N)CCCNC(=N)N)CC5)O[C@@H](n5ccc(N)nc5=O)C4)O[C@@H](n4cc(C)c(=O)[nH]c4=O)C3)O2)c(=O)[nH]c1=O (some centres undefined) | 20 µM (≈ 97.4 µg/mL) |
| Cc1cn([C@H]2CN(P(=O)(OC[C@@H]3CN(P(=O)(OC[C@@H]4CN(P(=O)(OC[C@@H]5CN(P(=O)(OC[C@@H]6CN(P(=O)(OC[C@@H]7CN(P(=O)(OC[C@@H]8CN(P(=O)(OC[C@@H]9CN(P(=O)(OC[C@@H]%10CNC[C@H](n%11cnc%12c(=O)[nH]c(N)nc%12%11)O%10)N(C)C)C[C@H](n%10cc(C)c(=O)[nH]c%10=O)O9)N(C)C)C[C@H](n9cnc%10c(=O)[nH]c(N)nc%109)O8)N(C)C)C[C@H](n8cnc9c(N)ncnc98)O7)N(C)C)C[C@H](n7cc(C)c(=O)[nH]c7=O)O6)N(C)C)C[C@H](n6cnc7c(N)ncnc76)O5)N(C)C)C[C@H](n5cnc6c(=O)[nH]c(N)nc65)O4)N(C)C)C[C@H](n4ccc(N)nc4=O)O3)N(C)C)C[C@@H](COP(=O)(N(C)C)N3C[C@@H](COP(=O)(N(C)C)N4C[C@@H](COP(=O)(N(C)C)N5CCN(C(=O)CCNC(=O)CCCCCNC(=O)[C@H](CCCCN)NC(=O)[C@H](Cc6ccccc6)NC(=O)[C@H](Cc6ccccc6)NC(=O)[C@H](CCCCN)NC(=O)[C@H](Cc6ccccc6)NC(=O)[C@H](Cc6ccccc6)NC(=O)[C@H](CCCCN)NC(=O)[C@H](Cc6ccccc6)NC(=O)[C@H](Cc6ccccc6)NC(=O)[C@@H](N)CCCCN)CC5)O[C@@H](n5ccc(N)nc5=O)C4)O[C@@H](n4cc(C)c(=O)[nH]c4=O)C3)O2)c(=O)[nH]c1=O (some centres undefined) | 10 µM (≈ 53.6 µg/mL) |
| Cc1cn([C@H]2CN(P(=O)(OC[C@@H]3CN(P(=O)(OC[C@@H]4CN(P(=O)(OC[C@@H]5CN(P(=O)(OC[C@@H]6CN(P(=O)(OC[C@@H]7CN(P(=O)(OC[C@@H]8CN(P(=O)(OC[C@@H]9CN(P(=O)(OC[C@@H]%10CNC[C@H](n%11cnc%12c(=O)[nH]c(N)nc%12%11)O%10)N(C)C)C[C@H](n%10cc(C)c(=O)[nH]c%10=O)O9)N(C)C)C[C@H](n9cnc%10c(=O)[nH]c(N)nc%109)O8)N(C)C)C[C@H](n8cnc9c(N)ncnc98)O7)N(C)C)C[C@H](n7cc(C)c(=O)[nH]c7=O)O6)N(C)C)C[C@H](n6cnc7c(N)ncnc76)O5)N(C)C)C[C@H](n5cnc6c(=O)[nH]c(N)nc65)O4)N(C)C)C[C@H](n4ccc(N)nc4=O)O3)N(C)C)C[C@@H](COP(=O)(N(C)C)N3C[C@@H](COP(=O)(N(C)C)N4C[C@@H](COP(=O)(N(C)C)N5CCN(C(=O)CCNC(=O)CCCCCNC(=O)[C@@H](N)CCCNC(=O)[C@H](Cc6ccccc6)NC(=O)[C@H](Cc6ccccc6)NC(=O)[C@@H](N)CCCNC(=O)[C@H](Cc6ccccc6)NC(=O)[C@H](Cc6ccccc6)NC(=O)[C@@H](N)CCCNC(=O)[C@H](Cc6ccccc6)NC(=O)[C@H](Cc6ccccc6)NC(=O)[C@@H](N)CCCN)CC5)O[C@@H](n5ccc(N)nc5=O)C4)O[C@@H](n4cc(C)c(=O)[nH]c4=O)C3)O2)c(=O)[nH]c1=O (some centres undefined) | > 80 µM |

Results, then the compound that gave them:

| MIC | Compound |
| --- | --- |
| > 80 µM | Cc1cn([C@H]2CN(P(=O)(OC[C@@H]3CN(P(=O)(OC[C@@H]4CN(P(=O)(OC[C@@H]5CN(P(=O)(OC[C@@H]6CN(P(=O)(OC[C@@H]7CN(P(=O)(OC[C@@H]8CN(P(=O)(OC[C@@H]9CN(P(=O)(OC[C@@H]%10CNC[C@H](n%11cnc%12c(=O)[nH]c(N)nc%12%11)O%10)N(C)C)C[C@H](n%10cc(C)c(=O)[nH]c%10=O)O9)N(C)C)C[C@H](n9cnc%10c(=O)[nH]c(N)nc%109)O8)N(C)C)C[C@H](n8cnc9c(N)ncnc98)O7)N(C)C)C[C@H](n7cc(C)c(=O)[nH]c7=O)O6)N(C)C)C[C@H](n6cnc7c(N)ncnc76)O5)N(C)C)C[C@H](n5cnc6c(=O)[nH]c(N)nc65)O4)N(C)C)C[C@H](n4ccc(N)nc4=O)O3)N(C)C)C[C@@H](COP(=O)(N(C)C)N3C[C@@H](COP(=O)(N(C)C)N4C[C@@H](COP(=O)(N(C)C)N5CCN(C(=O)CCNC(=O)CCCCCNC(=O)[C@H](CCCNC(=N)N)NC(=O)CCNC(=O)CCNC(=O)[C@H](CCCNC(=N)N)NC(=O)CCNC(=O)CCNC(=O)[C@H](CCCNC(=N)N)NC(=O)CCNC(=O)CCNC(=O)[C@@H](N)CCCNC(=N)N)CC5)O[C@@H](n5ccc(N)nc5=O)C4)O[C@@H](n4cc(C)c(=O)[nH]c4=O)C3)O2)c(=O)[nH]c1=O (some centres undefined) |
| 20 µM (≈ 100 µg/mL) | Cc1cn([C@H]2CN(P(=O)(OC[C@@H]3CN(P(=O)(OC[C@@H]4CN(P(=O)(OC[C@@H]5CN(P(=O)(OC[C@@H]6CN(P(=O)(OC[C@@H]7CN(P(=O)(OC[C@@H]8CN(P(=O)(OC[C@@H]9CN(P(=O)(OC[C@@H]%10CNC[C@H](n%11cnc%12c(=O)[nH]c(N)nc%12%11)O%10)N(C)C)C[C@H](n%10cc(C)c(=O)[nH]c%10=O)O9)N(C)C)C[C@H](n9cnc%10c(=O)[nH]c(N)nc%109)O8)N(C)C)C[C@H](n8cnc9c(N)ncnc98)O7)N(C)C)C[C@H](n7cc(C)c(=O)[nH]c7=O)O6)N(C)C)C[C@H](n6cnc7c(N)ncnc76)O5)N(C)C)C[C@H](n5cnc6c(=O)[nH]c(N)nc65)O4)N(C)C)C[C@H](n4ccc(N)nc4=O)O3)N(C)C)C[C@@H](COP(=O)(N(C)C)N3C[C@@H](COP(=O)(N(C)C)N4C[C@@H](COP(=O)(N(C)C)N5CCN(C(=O)CCNC(=O)CCCCCNC(=O)CCCCCNC(=O)[C@H](CCCNC(=N)N)NC(=O)CCCCCNC(=O)CCCCCNC(=O)[C@H](CCCNC(=N)N)NC(=O)CCCCCNC(=O)CCCCCNC(=O)[C@@H](N)CCCNC(=N)N)CC5)O[C@@H](n5ccc(N)nc5=O)C4)O[C@@H](n4cc(C)c(=O)[nH]c4=O)C3)O2)c(=O)[nH]c1=O (some centres undefined) |
| > 80 µM | Cc1cn([C@H]2CN(P(=O)(OC[C@@H]3CN(P(=O)(OC[C@@H]4CN(P(=O)(OC[C@@H]5CN(P(=O)(OC[C@@H]6CN(P(=O)(OC[C@@H]7CN(P(=O)(OC[C@@H]8CN(P(=O)(OC[C@@H]9CN(P(=O)(OC[C@@H]%10CNC[C@H](n%11cnc%12c(=O)[nH]c(N)nc%12%11)O%10)N(C)C)C[C@H](n%10cc(C)c(=O)[nH]c%10=O)O9)N(C)C)C[C@H](n9cnc%10c(=O)[nH]c(N)nc%109)O8)N(C)C)C[C@H](n8cnc9c(N)ncnc98)O7)N(C)C)C[C@H](n7cc(C)c(=O)[nH]c7=O)O6)N(C)C)C[C@H](n6cnc7c(N)ncnc76)O5)N(C)C)C[C@H](n5cnc6c(=O)[nH]c(N)nc65)O4)N(C)C)C[C@H](n4ccc(N)nc4=O)O3)N(C)C)C[C@@H](COP(=O)(N(C)C)N3C[C@@H](COP(=O)(N(C)C)N4C[C@@H](COP(=O)(N(C)C)N5CCN(C(=O)CCNC(=O)CCCCCNC(=O)[C@H](CCCNC(=N)N)NC(=O)CCCCCNC(=O)[C@@H](N)CCCNC(=N)N)CC5)O[C@@H](n5ccc(N)nc5=O)C4)O[C@@H](n4cc(C)c(=O)[nH]c4=O)C3)O2)c(=O)[nH]c1=O (some centres undefined) |
